Measured values reported in ChEMBL document CHEMBL1201862, “PubChem BioAssay data set” (2004).
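Results reflect a 48-hour exposure of cells in 96-well plates to compound at five concentrations. The concentration for 50% growth inhibition is given as GI50.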 Active and inactive are the calls of the source. Cut-off read from the data, not from the text of the source: active = GI50 up to about 1.1 µM and inactive = higher.

Experiments:
Test in all cases: DTP human tumour cell line panel, 48 h
[1] = tested on: EKVX
[2] = tested on: HCC 2998
[3] = tested on: HOP-62
[4] = tested on: HT-29
[5] = tested on: K562
[6] = tested on: KM12
[7] = tested on: MDA-MB-435
[8] = tested on: MOLT-4
[9] = tested on: NCI-H460
[10] = tested on: NCI/ADR-RES
[11] = tested on: OVCAR-3
[12] = tested on: OVCAR-8
[13] = tested on: RPMI-8226
[14] = tested on: SF-295
[15] = tested on: SF-539
[16] = tested on: SNB-19
[17] = tested on: SR
[18] = tested on: UACC-257
[19] = tested on: UO-31

Structure (SMILES) | GI50 [1] | GI50 [2] | GI50 [3] | GI50 [4] | GI50 [5] | GI50 [6] | GI50 [7] | GI50 [8] | GI50 [9] | GI50 [10] | GI50 [11] | GI50 [12] | GI50 [13] | GI50 [14] | GI50 [15] | GI50 [16] | GI50 [17] | GI50 [18] | GI50 [19]
CC(=O)Oc1c(C)c2c(c3ncccc13)OC(C)C2 (stereo not given) | 17.1 µM (inactive) | 12.8 µM (inactive) | 17.1 µM (inactive) | 18.8 µM (inactive) | 10.2 µM (inactive) | 15.1 µM (inactive) | 6.14 µM (inactive) | 6.41 µM (inactive) | 10.8 µM (inactive) | 15.6 µM (inactive) | 32.4 µM (inactive) | 14.5 µM (inactive) | 16.7 µM (inactive) | 14.7 µM (inactive) | 15 µM (inactive) | 34 µM (inactive) | 3.63 µM (inactive) | 14.8 µM (inactive) | 14.8 µM (inactive)
CC1Oc2cc3c(-c4c(O)cc(O)c5c(O)c6c(cc45)OC(C)C(C)C6=O)c(O)cc(O)c3c(O)c2C(=O)C1C (stereo not given) | 0.116 µM (active) | 0.281 µM (active) | 0.282 µM (active) | 0.0289 µM (active) | 0.0526 µM (active) | 0.0607 µM (active) | 0.24 µM (active) | 0.109 µM (active) | 0.0259 µM (active) | 0.162 µM (active) | 0.255 µM (active) | 0.0859 µM (active) | 0.0489 µM (active) | 0.061 µM (active) | 0.15 µM (active) | 0.0832 µM (active) | 0.054 µM (active) | 0.289 µM (active) | 0.213 µM (active)
Cc1nc(O)nc2nc3ccc(Cl)cc3c(NCCNCCO)c12 | 11.4 µM (inactive) | 13.6 µM (inactive) | 8.05 µM (inactive) | 10.3 µM (inactive) | 8.59 µM (inactive) | 10.8 µM (inactive) | 13 µM (inactive) | 7.53 µM (inactive) | 12.5 µM (inactive) | 19.4 µM (inactive) | 12.5 µM (inactive) | 9.46 µM (inactive) | 42.9 µM (inactive) | 16.3 µM (inactive) | 7.16 µM (inactive) | 9.06 µM (inactive) | 8.07 µM (inactive) | 12.4 µM (inactive) | 8.65 µM (inactive)
CN1C(=O)C(O)CC1c1cccc(F)c1 (stereo not given) | > 100 µM (inactive) | > 100 µM (inactive) | > 100 µM (inactive) | > 100 µM (inactive) | > 100 µM (inactive) | > 100 µM (inactive) | > 100 µM (inactive) | > 100 µM (inactive) | > 100 µM (inactive) | > 100 µM (inactive) | > 100 µM (inactive) | > 100 µM (inactive) | > 100 µM (inactive) | > 100 µM (inactive) | > 100 µM (inactive) | > 100 µM (inactive) | > 100 µM (inactive) | > 100 µM (inactive) | > 100 µM (inactive)
N[C@@H](CCC(=O)NC(Cc1ccccc1)C(=O)NCP(=O)(O)O)C(=O)O (stereo not given in full) | > 100 µM (inactive) | > 100 µM (inactive) | > 100 µM (inactive) | > 100 µM (inactive) | > 100 µM (inactive) | > 100 µM (inactive) | > 100 µM (inactive) | > 100 µM (inactive) | > 100 µM (inactive) | > 100 µM (inactive) | > 100 µM (inactive) | > 100 µM (inactive) | > 100 µM (inactive) | 0.513 µM (active) | > 100 µM (inactive) | > 100 µM (inactive) | > 100 µM (inactive) | > 100 µM (inactive) | > 100 µM (inactive)
COc1ccccc1C1ON=C(c2ccc([N+](=O)[O-])cc2)N1C12CC3CC(CC(C3)C1)C2 (stereo not given) | > 100 µM (inactive) | > 100 µM (inactive) | 20.4 µM (inactive) | 45.4 µM (inactive) | 36.7 µM (inactive) | > 100 µM (inactive) | 96.4 µM (inactive) | 17.6 µM (inactive) | 47.9 µM (inactive) | > 100 µM (inactive) | > 100 µM (inactive) | > 100 µM (inactive) | 20.8 µM (inactive) | 80.2 µM (inactive) | > 100 µM (inactive) | > 100 µM (inactive) | 29.9 µM (inactive) | > 100 µM (inactive) | > 100 µM (inactive)
CN1CSC(=S)N(c2cccc(C(F)(F)F)c2)C1 | 25 µM (inactive) | 18.6 µM (inactive) | 26.9 µM (inactive) | 22.5 µM (inactive) | 24 µM (inactive) | 22.4 µM (inactive) | 22.5 µM (inactive) | 24.7 µM (inactive) | 20.2 µM (inactive) | 26.9 µM (inactive) | 30 µM (inactive) | 25.4 µM (inactive) | 17.5 µM (inactive) | 21.8 µM (inactive) | 20.7 µM (inactive) | 21.5 µM (inactive) | 23.4 µM (inactive) | 22.5 µM (inactive) | 26.4 µM (inactive)
COC(=O)/C(C#N)=C/c1cc(C(C)(C)C)c(O)c(C(C)(C)C)c1 | 2.33 µM (inactive) | 2.7 µM (inactive) | 3.15 µM (inactive) | 2.82 µM (inactive) | 2.59 µM (inactive) | 2.62 µM (inactive) | 3.21 µM (inactive) | 2.2 µM (inactive) | 1.95 µM (inactive) | 1.11 µM (active) | 1.45 µM (inactive) | 2.99 µM (inactive) | 0.401 µM (active) | 1.74 µM (inactive) | 3.27 µM (inactive) | 3.17 µM (inactive) | 0.904 µM (active) | 1.82 µM (inactive) | 2.17 µM (inactive)
Nc1ccc(Oc2ccc(C34CC5CC(C3)CC(c3ccc(Oc6ccc(N)c(O)c6)cc3)(C5)C4)cc2)cc1O | 1.72 µM (inactive) | 1.47 µM (inactive) | 3.47 µM (inactive) | 2.05 µM (inactive) | 3.3 µM (inactive) | 1.93 µM (inactive) | 1.89 µM (inactive) | 2.48 µM (inactive) | 1.75 µM (inactive) | 2.32 µM (inactive) | 2.03 µM (inactive) | 1.7 µM (inactive) | 2.54 µM (inactive) | 2.31 µM (inactive) | 2.13 µM (inactive) | 1.52 µM (inactive) | 0.424 µM (active) | 1.97 µM (inactive) | 1.77 µM (inactive)
CC12CCC(C(Nc3ccccn3)C1=O)C2(C)C (stereo not given) | > 100 µM (inactive) | 29.9 µM (inactive) | > 100 µM (inactive) | > 100 µM (inactive) | > 100 µM (inactive) | > 100 µM (inactive) | > 100 µM (inactive) | > 100 µM (inactive) | > 100 µM (inactive) | > 100 µM (inactive) | > 100 µM (inactive) | > 100 µM (inactive) | > 100 µM (inactive) | > 100 µM (inactive) | > 100 µM (inactive) | > 100 µM (inactive) | > 100 µM (inactive) | > 100 µM (inactive) | > 100 µM (inactive)
Clc1ccc2c(NC3CCC(N4CCCCC4)CC3)ccnc2c1 (stereo not given) | 21.2 µM (inactive) | 12.2 µM (inactive) | 29.9 µM (inactive) | 11.4 µM (inactive) | 3.3 µM (inactive) | 20.1 µM (inactive) | 14.1 µM (inactive) | 14.6 µM (inactive) | 15 µM (inactive) | 34 µM (inactive) | 20.8 µM (inactive) | 29.4 µM (inactive) | 18.1 µM (inactive) | 19.1 µM (inactive) | 15.4 µM (inactive) | 32.7 µM (inactive) | 13.2 µM (inactive) | 14.3 µM (inactive) | 13.9 µM (inactive)
CN1CC[C@]2(c3cccc(O)c3)CC(=O)/C(=C/c3ccccc3)[C@@H]1C2.[O-][Cl+3]([O-])([O-])O | 6.92 µM (inactive) | 2.59 µM (inactive) | 3.88 µM (inactive) | 2.62 µM (inactive) | 1.64 µM (inactive) | 3.61 µM (inactive) | 1.72 µM (inactive) | 2.04 µM (inactive) | 2.17 µM (inactive) | 2.98 µM (inactive) | 1.97 µM (inactive) | 3.03 µM (inactive) | 1.86 µM (inactive) | 3.24 µM (inactive) | 1.95 µM (inactive) | 5.4 µM (inactive) | 2.41 µM (inactive) | 3.24 µM (inactive) | 2.51 µM (inactive)
CCOC(=O)c1c(NS(=O)(=O)c2ccc(Br)cc2)sc2c1CCCC2 | 4.52 µM (inactive) | 16.7 µM (inactive) | 5.9 µM (inactive) | 5.3 µM (inactive) | 5.79 µM (inactive) | 6.65 µM (inactive) | 19.4 µM (inactive) | 4.91 µM (inactive) | 6.4 µM (inactive) | 1.57 µM (inactive) | 3.93 µM (inactive) | 5.89 µM (inactive) | 4.6 µM (inactive) | 3.92 µM (inactive) | 7.91 µM (inactive) | 7.46 µM (inactive) | 19.7 µM (inactive) | 9.23 µM (inactive) | 3.51 µM (inactive)
CN1CCN(c2nc3ccccc3nc2C(=O)c2ccc(Cl)cc2)CC1 | 86.3 µM (inactive) | 33.7 µM (inactive) | 59.4 µM (inactive) | 38.2 µM (inactive) | 40.8 µM (inactive) | 35.1 µM (inactive) | 44.5 µM (inactive) | 65 µM (inactive) | 27.1 µM (inactive) | 54.5 µM (inactive) | 44 µM (inactive) | 69 µM (inactive) | 22.2 µM (inactive) | 36.3 µM (inactive) | 69.2 µM (inactive) | > 100 µM (inactive) | 47.4 µM (inactive) | 36.1 µM (inactive) | 31 µM (inactive)
COc1cc2c(c(O)c1OC)C(=O)[C@@H]1CCC(=O)N1C2c1ccccc1 (stereo not given in full) | 51.9 µM (inactive) | > 100 µM (inactive) | > 100 µM (inactive) | 87.7 µM (inactive) | 38.6 µM (inactive) | 67.5 µM (inactive) | 90.6 µM (inactive) | 36 µM (inactive) | > 100 µM (inactive) | > 100 µM (inactive) | 65.6 µM (inactive) | 57.5 µM (inactive) | 45.7 µM (inactive) | > 100 µM (inactive) | > 100 µM (inactive) | > 100 µM (inactive) | 46.6 µM (inactive) | > 100 µM (inactive) | 39.6 µM (inactive)
